In patent publication US20220213060A1, “Crystal Form of Quinazolinone Compound and Preparation Method Therefor” (Luoxin Healthcare Science and Technology Development …, priority 2019, published 2022):

Tests used:
[1] = test system: Jeko-1; test: Akt phosphorylation inhibition in Jeko-1 cells (high expression of PI3Kδ); format: cell-based; conditions: Jeko-1 cell line with high expression of PI3Kδ
[2] = biological target: T1, PI3Kβ (Homo sapiens, UniProt P42338); test: In vitro enzymatic activity test (ADP-Glo lipid kinase), PI3Kβ; format: biochemical; conditions: inhibitory activity against PI3Kα relative to PI3Kβ
T1 construct: purchased Promega V1751
T1 sequence (P42338 whole entry): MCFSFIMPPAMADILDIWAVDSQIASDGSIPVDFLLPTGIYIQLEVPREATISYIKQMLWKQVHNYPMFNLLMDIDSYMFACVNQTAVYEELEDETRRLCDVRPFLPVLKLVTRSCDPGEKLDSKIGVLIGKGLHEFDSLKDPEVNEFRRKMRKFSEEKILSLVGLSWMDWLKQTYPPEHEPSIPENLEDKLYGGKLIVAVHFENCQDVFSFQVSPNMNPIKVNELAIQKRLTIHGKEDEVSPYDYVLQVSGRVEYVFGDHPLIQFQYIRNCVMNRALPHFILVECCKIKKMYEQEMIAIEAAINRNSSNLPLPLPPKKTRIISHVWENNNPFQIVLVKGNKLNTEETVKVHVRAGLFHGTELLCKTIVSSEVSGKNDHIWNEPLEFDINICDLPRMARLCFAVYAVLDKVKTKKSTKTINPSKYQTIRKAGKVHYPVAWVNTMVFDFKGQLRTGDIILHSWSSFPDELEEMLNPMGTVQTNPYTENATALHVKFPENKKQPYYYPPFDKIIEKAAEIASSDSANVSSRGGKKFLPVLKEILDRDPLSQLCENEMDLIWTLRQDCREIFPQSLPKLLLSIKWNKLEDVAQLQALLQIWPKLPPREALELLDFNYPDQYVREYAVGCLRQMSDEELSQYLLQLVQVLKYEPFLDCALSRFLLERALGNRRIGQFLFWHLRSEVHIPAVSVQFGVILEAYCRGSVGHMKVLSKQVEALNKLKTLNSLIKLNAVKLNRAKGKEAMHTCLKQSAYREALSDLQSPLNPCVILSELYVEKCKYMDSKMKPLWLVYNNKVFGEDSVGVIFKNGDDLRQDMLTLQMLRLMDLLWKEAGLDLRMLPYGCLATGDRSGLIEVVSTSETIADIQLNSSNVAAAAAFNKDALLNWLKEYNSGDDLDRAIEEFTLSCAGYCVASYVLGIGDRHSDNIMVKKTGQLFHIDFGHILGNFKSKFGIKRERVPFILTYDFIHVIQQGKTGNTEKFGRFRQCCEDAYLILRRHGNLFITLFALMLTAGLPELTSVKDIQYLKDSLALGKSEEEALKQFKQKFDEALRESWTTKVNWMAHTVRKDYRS
T1 sequence (P27986 whole entry partner): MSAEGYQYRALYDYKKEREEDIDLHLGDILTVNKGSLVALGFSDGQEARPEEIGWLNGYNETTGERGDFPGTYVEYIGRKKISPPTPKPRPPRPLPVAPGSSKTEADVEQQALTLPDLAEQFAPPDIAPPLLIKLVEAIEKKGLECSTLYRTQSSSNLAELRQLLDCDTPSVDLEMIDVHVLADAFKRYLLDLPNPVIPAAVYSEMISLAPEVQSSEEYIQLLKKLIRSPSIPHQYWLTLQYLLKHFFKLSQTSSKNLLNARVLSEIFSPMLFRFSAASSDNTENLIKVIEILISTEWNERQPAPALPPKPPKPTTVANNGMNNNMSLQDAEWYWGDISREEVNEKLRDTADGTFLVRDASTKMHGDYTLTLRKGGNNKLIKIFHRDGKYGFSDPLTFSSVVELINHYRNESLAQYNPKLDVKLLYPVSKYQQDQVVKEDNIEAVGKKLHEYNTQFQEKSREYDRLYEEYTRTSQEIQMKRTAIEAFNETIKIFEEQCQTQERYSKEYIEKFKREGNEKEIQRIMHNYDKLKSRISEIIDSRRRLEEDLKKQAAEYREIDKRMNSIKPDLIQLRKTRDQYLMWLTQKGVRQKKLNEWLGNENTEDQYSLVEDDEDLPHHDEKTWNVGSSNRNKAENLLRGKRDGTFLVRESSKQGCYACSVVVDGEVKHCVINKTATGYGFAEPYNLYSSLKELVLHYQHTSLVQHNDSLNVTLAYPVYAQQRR
Experimental: The lipid kinase reaction was carried out in a suitable substrate and under ATP conditions, then the activity of the kinase was detected by ADP-Glo™ kit in two steps. Step 1: the kinase reaction was terminated, in which the residual ATP was completely removed and only ADP was retained; step 2: kinase detection reagent was added to convert ADP to ATP, accompanied by fluorescein/luciferase reaction. Finally, the fluorescence value output was converted into kinase activity.
Experimental Materials and Equipment:
2) Kit: ADP-Glo™ lipid kinase and PIP2:3PS kit (Promega #V1792)
The reagent kit contains: 1 mM PIP2:3PS, 10× lipid dilution buffer, 1 M magnesium chloride, 10 mM ATP, 10 mM ADP, ADP-Glo reagent, detection buffer and detection substrate.
3) Reaction plate: OptiPlate-384, white and transparent (PerkinElmer #6007299)
1) 10× reaction buffer: 500 mM HEPES, pH 7.5, 500 mM NaCl, […]; BSA: 10% stock solution, self-made
2) Final test system conditions: 1× reaction system: 50 mM of HEPES, 50 mM of NaCl, 3 mM of MgCl2, 0.01% BSA (freshly prepared on the day of experiment), 1% DMSO (v/v)+/−compound
3) Reaction system: 3 μL of mixture of enzyme and substrate (1:1)+2 μL of ATP/MgCl2 mixture+5 μL of ADP-Glo reagent+10 μL of detection reagent.
The specific experimental operations were as follows: […]
(16) Fluorescence values were measured on the Envision instrument.

[3] = Solid stability test of crystal form A (influencing factors and accelerated conditions, HPLC/XRPD); format: physicochemical
Experimental: 1.5 High Performance Liquid Chromatograph Method
Sample concentration: 0.5 mg/mL
The stability of the crystal form A of the compound represented by formula (I) was investigated according to the Guideline for Stability Testing of APIs and Formulations (Chinese Pharmacopoeia 2015 Edition IV General Rule 9001).
5 mg of the crystal form A of the compound represented by formula (I) was weighed separately, placed in a dry and clean glass bottle, in duplicate, spread into a thin layer, as a formal test sample, the two samples were placed under the test conditions of influencing factors (60° C., 92.5% relative humidity) and accelerated conditions (30° C./65% relative humidity, 40° C./75% relative humidity and 60° C./75% relative humidity), the samples were fully exposed, covered with aluminum foil and pierced with small holes. Sampling and analysis were performed on day 5, day 10, and 1 month. Samples placed under illumination (total illumination 1200000 Lux·hr, near ultraviolet 200 w·hr/m^2) were completely exposed at room temperature.

[4] = Hygroscopicity by dynamic vapor sorption (DVS); format: physicochemical; conditions: 25° C. and 80% RH; listed as crystal form A of the compound represented by formula (I)
Experimental: 1.4 Dynamic Vapor Sorption (DVS) Method of the Present Disclosure
Instrument model: SMS DVS Advantage dynamic vapor sorption instrument
Detection conditions: 10-20 mg of sample was placed in a DVS sample tray for testing.
Detailed DVS parameters were as follows:
Equilibrium: dm/dt=0.01%/min: (shortest: 10 min, longest: 180 min)
Drying: drying at 0% RH for 120 min
RH (%) test gradient: 10%
RH (%) test gradient range: 0%-90%-0%
Hygroscopicity evaluation is classified as follows:
20 mg of the crystal form A of the compound represented by formula (I) was placed in the DVS sample tray for testing.

[5] = 30° C., relative humidity 65%, open, 1 month
[6] = 30° C., relative humidity 65%, open, Day 10
[7] = 40° C., relative humidity 75%, open, 1 month
[8] = 40° C., relative humidity 75%, open, Day 10
[9] = 60° C., relative humidity 75%, open, 1 month
[10] = 60° C., relative humidity 75%, open, Day 10
[11] = High humidity (25° C./92.5% relative humidity, open), Day 5
[12] = High humidity (25° C./92.5% relative humidity, open), Day 10
[13] = High temperature (60° C., open), Day 5
[14] = High temperature (60° C., open), Day 10
[15] = Illumination (total illumination 1.2 × 106 Lux · hr/near ultraviolet 200 w · hr/m^2, open), Day 10
[16] = In the absence of light, Day 10

In the case of `CNC(=O)[C@H](C)Cn1cnc2ccc(-c3cnc(OC)c(NS(=O)(=O)c4ccc(F)cc4F)c3)cc2c1=O`, the “Selectivity PI3Kα over PI3Kδ, Akt phosphorylation inhibitory activity in cells” value [1] is reported as 23.0 times, the “Selectivity PI3Kα/β (kinase)” value [2] is reported as 149 times and the “Content of the crystal form A of the compound represented by formula (I) (%)” value (from here on “Content … (I) (%)”) [3, 5] is reported as 101.64%. For the same compound, the “Total impurity content (%)” value [3, 5] was 0.14%, the “Content … (I) (%)” value [3, 6] was 104.28% and the “Total impurity content (%)” value [3, 6] was 0.14%. The “Content … (I) (%)” value [3, 7] was 103.86%, the “Total impurity content (%)” value [3, 7] was 0.16% and the “Content … (I) (%)” value [3, 8] was 103.79%. The “Total impurity content (%)” value [3, 8] was 0.15%, the “Content … (I) (%)” value [3, 9] was 103.30% and the “Total impurity content (%)” value [3, 9] was 0.14%. For the same compound, the “Content … (I) (%)” value [3, 10] was 103.63%, the “Total impurity content (%)” value [3, 10] was 0.14% and the “Content … (I) (%)” value ([3]; Day 0) was 103.08%. The “Total impurity content (%)” value ([3]; Day 0) was 0.14%, the “Content … (I) (%)” value [3, 11] was 103.08% and the “Total impurity content (%)” value [3, 11] was 0.14%. For the same compound, the “Content … (I) (%)” value [3, 12] was 103.95%, the “Total impurity content (%)” value [3, 12] was 0.14% and the “Content … (I) (%)” value [3, 13] was 104.39%. For the same compound, the “Total impurity content (%)” value [3, 13] was 0.14%, the “Content … (I) (%)” value [3, 14] was 102.00% and the “Total impurity content (%)” value [3, 14] was 0.14%. For the same compound, the “Content … (I) (%)” value [3, 15] was 103.04%, the “Total impurity content (%)” value [3, 15] was 0.14% and the “Content … (I) (%)” value [3, 16] was 102.57%. For the same compound, the “Total impurity content (%)” value [3, 16] was 0.15%, the “Stability (conclusion of the solid stability test)” value ([3]; all test conditions of Table 7) was “good stability” and the Classification for hygroscopicity [4] was “slightly hygroscopic (2% > ΔW% ≥ 0.2%)”. For the same compound, the “ΔW, hygroscopical weight gain” value [4] was 0.885%.
